Test results as given in ChEMBL document CHEMBL5143695, “Benzobis(imidazole) derivatives as STAT3 signal inhibitors with antitumor activity” (Bioorg Med Chem, 2022).
Activity calls are given as the source filed them. No cut-off for these calls is given here.

Experiments:
HepG2 [1] = assay: Induction of apoptosis in human HepG2 cells assessed as viable cells at 5 uM incubated for 48 hrs by Annexin V/PI staining based flow cytometry method (reference value: 92.5%); type: functional; conditions: read-out: Activity
[2] = biological target: Signal transducer and activator of transcription 3 (Homo sapiens) (UniProt P40763); assay: Inhibition of STAT3 phosphorylation at Y705 residue in human HepG2 cells measured after 16 hrs by Western blotting analysis; type: cell-based; conditions: dose 2.5-20 µM, DDE = dose-dependent effect
[3] = biological target: Signal transducer and activator of transcription 3 (Homo sapiens) (UniProt P40763); assay: Inhibition of STAT3 phosphorylation at Y705 residue in human EC109 cells measured after 16 hrs by Western blotting analysis; type: cell-based; conditions: dose 2.5-20 µM, DDE = dose-dependent effect
[4] = biological target: Signal transducer and activator of transcription 3 (Homo sapiens) (UniProt P40763); assay: Inhibition of STAT3 nuclear translocation in human HepG2 cells assessed as decrease in nuclear STAT3 level at 5 to 10 microM incubated overnight by immunofluorescence analysis; type: cell-based; conditions: dose 5-10 µM
[5] = biological target: Signal transducer and activator of transcription 3 (Homo sapiens) (UniProt P40763); assay: Inhibition of STAT3 dimerization in human HepG2 cells assessed as decrease in STAT3 dimer formation at 5 to 10 uM incubated for 24 hrs by SDS-PAGE based DSS crosslink assay; type: cell-based; conditions: dose 5-10 µM
[6] = biological target: Signal transducer and activator of transcription 3 (Homo sapiens) (UniProt P40763); assay: Inhibition of IL-6 induced STAT3 phosphorylation at Tyr705 residue in human HepG2 cells preincubated for 16 hrs followed by IL-6 stimulation for 30 mins by Western blot analysis; type: cell-based; conditions: dose 2.5-20 µM, DDE = dose-dependent effect
HepG2 [7] = assay: Induction of apoptosis in human HepG2 cells assessed as viable cells at 10 uM incubated for 48 hrs by Annexin V/PI staining based flow cytometry method (reference value: 92.5%); type: functional; conditions: read-out: Activity
HepG2 [8] = assay: Induction of apoptosis in human HepG2 cells assessed as early apoptotic cells at 10 uM incubated for 48 hrs by Annexin V/PI staining based flow cytometry method (reference value: 3.31%); type: functional
HepG2 [9] = assay: Induction of apoptosis in human HepG2 cells assessed as late apoptotic cells at 10 uM incubated for 48 hrs by Annexin V/PI staining based flow cytometry method (reference value: 3.64%); type: functional
HepG2 [10] = assay: Induction of apoptosis in human HepG2 cells assessed as late apoptotic cells at 20 uM incubated for 48 hrs by Annexin V/PI staining based flow cytometry method (reference value: 3.64%); type: functional
ECa-109 cell line [11] = assay: Induction of apoptosis in human EC109 cells assessed as late apoptotic cells at 5 uM incubated for 48 hrs by Annexin V/PI staining based flow cytometry method (reference value: 6.17%); type: functional
ECa-109 cell line [12] = assay: Induction of apoptosis in human EC109 cells assessed as necrotic cells at 5 uM incubated for 48 hrs by Annexin V/PI staining based flow cytometry method (reference value: 0.73%); type: functional
ECa-109 cell line [13] = assay: Induction of apoptosis in human EC109 cells assessed as early apoptotic cells at 10 uM incubated for 48 hrs by Annexin V/PI staining based flow cytometry method (reference value: 1.36%); type: functional
ECa-109 cell line [14] = assay: Induction of apoptosis in human EC109 cells assessed as necrotic cells at 20 uM incubated for 48 hrs by Annexin V/PI staining based flow cytometry method (reference value: 0.73%); type: functional
ECa-109 cell line [15] = assay: Induction of apoptosis in human EC109 cells assessed as downregulation of cyclin D1 protein expression by Western blotting analysis; type: functional, cell-based; conditions: dose 2.5-20 µM, DDE = dose-dependent effect
ECa-109 cell line [16] = assay: Induction of cell cycle arrest in human EC109 cells assessed as accumulation of cells at G0/G1 phase incubated for 24 hrs by flow cytometric analysis (reference value: 49.86%); type: functional
HepG2 [17] = assay: Induction of cell cycle arrest in human HepG2 cells assessed as downregulation of cyclin D1 protein expression by Western blotting analysis; type: functional, cell-based; conditions: dose 2.5-20 µM, DDE = dose-dependent effect
HepG2 [18] = assay: Antitumor activity against human HepG2 cells xenografted in BALB/c athymic nude mouse assessed as decrease in Ki67 expression level at 20 to 40 mg/kg, ip administered daily for 24 days; type: functional, organism-based; conditions: dose 20-40 mg/kg, time 24.0 day

Chain of Signal transducer and activator of transcription 3 (Homo sapiens) (P40763 whole entry): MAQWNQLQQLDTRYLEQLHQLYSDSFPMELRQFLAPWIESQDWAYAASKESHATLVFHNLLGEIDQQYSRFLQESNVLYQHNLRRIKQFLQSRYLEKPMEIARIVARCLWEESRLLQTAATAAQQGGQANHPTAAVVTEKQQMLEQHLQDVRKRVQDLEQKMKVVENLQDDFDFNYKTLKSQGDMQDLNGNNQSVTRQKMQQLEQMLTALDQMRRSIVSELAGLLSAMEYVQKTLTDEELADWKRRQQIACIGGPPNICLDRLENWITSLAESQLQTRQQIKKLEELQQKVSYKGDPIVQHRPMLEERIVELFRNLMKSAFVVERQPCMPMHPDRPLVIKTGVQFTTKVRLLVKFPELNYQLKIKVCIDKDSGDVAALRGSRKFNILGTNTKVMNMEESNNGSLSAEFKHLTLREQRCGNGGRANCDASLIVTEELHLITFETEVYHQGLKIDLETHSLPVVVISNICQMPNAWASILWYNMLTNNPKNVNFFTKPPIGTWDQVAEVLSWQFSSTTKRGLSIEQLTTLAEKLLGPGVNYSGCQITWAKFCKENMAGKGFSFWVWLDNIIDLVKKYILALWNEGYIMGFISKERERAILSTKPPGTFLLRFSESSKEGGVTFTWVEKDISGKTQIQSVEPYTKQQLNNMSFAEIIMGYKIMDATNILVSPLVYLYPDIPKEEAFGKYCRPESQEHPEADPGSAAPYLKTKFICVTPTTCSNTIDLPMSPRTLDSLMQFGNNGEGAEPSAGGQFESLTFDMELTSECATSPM

## CCCn1c(-c2cccc(OC)c2)nc2cc3nc(-c4cccc(OC)c4)n(CCC)c3cc21
HepG2 [1]
  viability at 5 µM: 76.6%
[2]
  inhibition: Dde
[3]
  inhibition: Dde
[4]
  inhibition: Active
[5]
  inhibition: Active
[6]
  inhibition: Dde
HepG2 [7]
  viability at 10 µM: 39.5%
HepG2 [8]
  Activity: 19.7%
HepG2 [9]
  Activity: 39.4%
HepG2 [10]
  Activity: 51.9%
ECa-109 cell line [11]
  Activity: 11%
ECa-109 cell line [12]
  Activity: 0.87%
ECa-109 cell line [13]
  Activity: 11.2%
ECa-109 cell line [14]
  Activity: 3.56%
ECa-109 cell line [15]
  Activity: Dde
ECa-109 cell line [16]
  Activity: 58.73%
HepG2 [17]
  Activity: Dde
HepG2 [18]
  Activity: Active
